Assay results as given in US10023565B2, “N,N′ substituted piperidinamine compounds, and preparation method and usage thereof” (Institute of Pharmacology and Toxicology Academy of …, priority 2013, dated 2018).

What was measured:
[1] = test system: MRC5 (lung epithelial fibroblast); test: Extended test against tumor cell lines (ATPlite); type: cell-based; settings: MRC5 (normal cells), 72 hours
Outline: (§1)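 ATPlite luminescence readout after 72 h compound exposure at 37 °C; survival % = test RLU/control RLU ×100. Final concentrations 4–0.016 μM (4, 1, 0.25, 0.063, 0.016 μM), triplicate wells, 5000 cells/well pre-adhered 24 h.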

AsPC-1 = test: Extended test against tumor cell lines (ATPlite); type: cell-based; settings: AsPC-1 (pancreatic cancer), 72 hours
Outline: as §1

COLO205 = test: Extended test against tumor cell lines (ATPlite); type: cell-based; settings: COLO205 (colorectal cancer), 72 hours
Outline: as §1

HepG2 = test: Extended test against tumor cell lines (ATPlite); type: cell-based; settings: HepG2 (liver cancer), 72 hours
Outline: as §1

H460 = test: Extended test against tumor cell lines (ATPlite); type: cell-based; settings: H460 (lung cancer), 72 hours
Outline: as §1

[2] = test system: WI-38 (human embryonic lung fibroblast); test: Extended test against tumor cell lines (ATPlite); type: cell-based; settings: WI-38 (normal cells), 72 hours
Outline: as §1

MIA-PaCa-2 = test: Extended test against tumor cell lines (ATPlite); type: cell-based; settings: MIA-PaCa-2 (pancreatic cancer), 72 hours
Outline: as §1

A549 = test: Extended test against tumor cell lines (ATPlite); type: cell-based; settings: A549 (lung cancer), 72 hours
Outline: as §1

HT-29 = test: Extended test against tumor cell lines (ATPlite); type: cell-based; settings: HT-29 (colorectal cancer), 72 hours
Outline: as §1

Huh-7 = test: Extended test against tumor cell lines (ATPlite); type: cell-based; settings: Huh-7 (liver cancer), 72 hours
Outline: as §1

[3] = test system: tumor cells and normal cells (12 kinds of cells); test: Extended test against tumor cell lines, statements on the whole panel; type: cell-based; settings: 12 kinds of cells, 0.016-4 μM, 72 hours
Outline: as §1

BT/Lap^R1.0 = test: Antitumor bioactivity evaluation, breast cancer cells (ATPlite); type: cell-based, human; settings: Homo sapiens
Outline: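 ATPlite luminescence read-out after 72 h exposure at 37 °C; cell survival expressed as % of solvent-matched control RLU. Compound tested at 5 μM final, with or without 1 μM lapatinib, on cells plated 24 h earlier at 5000 per well.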

[4] = test system: six human breast cancer cell strains; test: Antitumor activity evaluation, statements on the whole panel; type: cell-based; settings: compound alone
Text: In antitumor activity evaluation, six human breast cancer cell strains are selected, including BT474, SK-BR3 which are human breast cancer cell strains sensitive to lapatinib, BT/Lap^R1.0, SK/Lap^R1.0 which are human breast cancer cell strains with secondary resistance to lapatinib, MDA-MB-361, MDA-MB-453 which are human breast cancer cell strains with natural resistance tolapatinib.
Antitumor bioactivity evaluation of the compounds of Examples according to the method described below
Cells plating: a 100 mm culture dish with overgrown adherent cells was digested with 1 ml 0.25% trypsin (GIBCO) at 37° C. for 5 min, and the reaction was terminated with 2 ml culture medium (containing 10% FBS, GIBCO). The cells were scattered and collected, after counting, diluted to 1×10^5 cells/ml, and seeded into a 96-well plate at 50 μl/well, 5000 cells/well, excluding the peripheral circle of wells in which no cell was added, but PBS was added, 60 wells in total, and then incubated at 37° C. for 24 hours for adhering.
Addition of the compound and lapatinib: the test sample was diluted to a final concentration of 5 μM, and the culture medium with the corresponding compound solvent concentration was filled in the control well, the compound solvent concentration was kept consistent in each well, 5 parellel wells were set for each concentration, 25 μl each well, 25 μl culture medium (in combined group, 25 μl lapatinib was added till a final concentration of 1 μM) supplemented, followed by incubation at 37° C. for 72 hours.
Test after incubation at 37° C. for 72 hours: 50 μL of ATPlite kit substrate solution was added in each well, and vibrated for 3 min, followed by placing aside in darkness for 10 min, and then supernatant 100 μl/well was taken and placed on aluminescence test plate; the luminescence test plate that has been fully incubated was placed in a luminescence test instrument, to read luminescence value.
1. Cell survival rate (%)=Experimental group RLU/control group RLU×100%. The experimental data were subjected to data analysis and processing by utilizing GraphPad software.

`CSc1nccc(N2CCC(N(C)Cc3ccc(Cl)cc3Cl)CC2)n1` [Example 40, N-methyl-N-(2,4-dichlorobenzyl)-N-[1-(2-methylthiopyrimidin-4-yl)piperidin-4-yl]amine] gave a Survival rate ([1]; 0.016 μM) of 93.6%, a Survival rate ([1]; 0.063 μM) of 88.9% and a Survival rate ([1]; 0.25 μM) of 91.9%. The Survival rate ([1]; 1 μM) was 86.5%, the Survival rate ([1]; 4 μM) was 67.6% and the Survival rate (AsPC-1; 0.016 μM) was 97.8%. The Survival rate (AsPC-1; 0.063 μM) was 96.1%, the Survival rate (AsPC-1; 0.25 μM) was 93.1% and the Survival rate (AsPC-1; 1 μM) was 83.3%. It also gave a Survival rate (AsPC-1; 4 μM) of 51.2%, a Survival rate (COLO205; 0.016 μM) of 96.2% and a Survival rate (COLO205; 0.063 μM) of 98.2%. For the same molecule, the Survival rate (COLO205; 0.25 μM) was 98.6%, the Survival rate (COLO205; 1 μM) was 91.9% and the Survival rate (COLO205; 4 μM) was 30.3%. It also gave a Survival rate (HepG2; 0.016 μM) of 94.7%, a Survival rate (HepG2; 0.063 μM) of 94.8% and a Survival rate (HepG2; 0.25 μM) of 86.4%. It also gave a Survival rate (HepG2; 1 μM) of 55.3%, a Survival rate (HepG2; 4 μM) of 4.5% and a Survival rate (H460; 0.016 μM) of 98.7%. For the same molecule, the Survival rate (H460; 0.063 μM) was 98.7%, the Survival rate (H460; 0.25 μM) was 93.7% and the Survival rate (H460; 1 μM) was 75.9%. The Survival rate (H460; 4 μM) was 26.3%, the Survival rate ([2]; 0.016 μM) was 99.3% and the Survival rate ([2]; 0.063 μM) was 97.3%. The Survival rate ([2]; 0.25 μM) was 95.8%, the Survival rate ([2]; 1 μM) was 92.3% and the Survival rate ([2]; 4 μM) was 64.2%. It also gave a Survival rate (MIA-PaCa-2; 0.016 μM) of 94.6%, a Survival rate (MIA-PaCa-2; 0.063 μM) of 94.8% and a Survival rate (MIA-PaCa-2; 0.25 μM) of 90.2%. For the same molecule, the Survival rate (MIA-PaCa-2; 1 μM) was 77.3%, the Survival rate (MIA-PaCa-2; 4 μM) was 20.6% and the Survival rate (A549; 0.016 μM) was 97.1%. It also gave a Survival rate (A549; 0.063 μM) of 95.9%, a Survival rate (A549; 0.25 μM) of 95.3% and a Survival rate (A549; 1 μM) of 81.2%. It also gave a Survival rate (A549; 4 μM) of 38%, a Survival rate (HT-29; 0.016 μM) of 100.6% and a Survival rate (HT-29; 0.063 μM) of 105.4%. For the same molecule, the Survival rate (HT-29; 0.25 μM) was 102%, the Survival rate (HT-29; 1 μM) was 89.2% and the Survival rate (HT-29; 4 μM) was 41.2%. For the same molecule, the Survival rate (Huh-7; 0.016 μM) was 93.8%, the Survival rate (Huh-7; 0.063 μM) was 90.7% and the Survival rate (Huh-7; 0.25 μM) was 87.3%. For the same molecule, the Survival rate (Huh-7; 1 μM) was 65.2%, the Survival rate (Huh-7; 4 μM) was 14.3% and the “inhibition of tumor cells versus cytotoxicity to normal cells” value [3] was “slightly stronger inhibition to liver cancer than that to other tumor cells, and exhibited cytotoxicity to normal cells lower than inhibition to tumor cells”. For the same molecule, the IC50 (BT/Lap^R1.0) was 1680 nM, the inhibition at 5 µM (BT/Lap^R1.0; test sample 5 μM, 72 hours, read-out: Inhibitory Rate % BT/Lap^R1.0) was 68.1% and the “growth inhibition to the six human breast cancer cell strains” value [4] was “relatively significant growth inhibition”.
